Literature values as cited in patent US20140271573A1, “PHARMACO-CELLULAR THERAPEUTIC METHOD FOR THE TREATMENT OF MUSCULAR DYSTROPHIES” (PONTIFICIA UNIVERSIDAD CATÓLICA DE CHILE, priority 2013, published 2014).

Key:
MES-13 cells = conditions: cited from earlier work
dystrophin = conditions: cited from earlier work
[1] = 12 DMD patients, six-month period

| Compound | reduction of caspase-3, TGF-β1 and PAI-1, relative activity (MES-13 cells; MES-13 cells, AP2 compared with AP1) | phenotypes indicating diabetic nephropathy in MES-13 cells (MES-13 cells; MES-13 cells) | antioxidant ability in a cellular environment (MES-13 cells) | intracellular oxidative states (MES-13 cells; high glucose cultured MES-13 cells) | clinical benefits in DMD patients (dystrophin; [1]) | patients with dystrophin expression detected (dystrophin; [1]) | dystrophin expression in muscle fibers, of normal levels (dystrophin; mdx mice and humans) [%] |
| --- | --- | --- | --- | --- | --- | --- | --- |
| C=C1CCC2C(C)(CO)C(O)CCC2(C)C1C=CC1=CCOC1=O (stereo not shown) [AP2, 14-deoxy-11,12-didehydroandrographolide] | potent activity than AP1 | reduces | do not have antioxidant ability | reduced | – | – | – |
| gentamicin | – | – | – | – | no clinical benefits were observed | 6 of the 12 | 20 |
